PubChem BioAssay (NCI)
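Protocol summary: plate cells (96-well), add compound at 5 concentrations, incubate 48 h, interpolate endpoints linearly. The concentration for full growth arrest is given as TGI.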

Key:
Assay in all cases: NCI tumour cell line growth inhibition, 48 h
CAKI-1 renal = tested on: CAKI-1 renal
OVCAR-8 ovarian = tested on: OVCAR-8 ovarian
HT29 colon = tested on: HT29 colon
DU-145 prostate = tested on: DU-145 prostate
RXF 393 renal = tested on: RXF 393 renal
A549 NSCLC = tested on: A549 NSCLC
HCC-2998 colon = tested on: HCC-2998 colon
MALME-3M melanoma = tested on: MALME-3M melanoma
SNB-19 CNS = tested on: SNB-19 CNS
KM12 colon = tested on: KM12 colon
M14 melanoma = tested on: M14 melanoma
CCRF-CEM leukemia = tested on: CCRF-CEM leukemia
HOP-92 NSCLC = tested on: HOP-92 NSCLC
HL-60(TB) leukemia = tested on: HL-60(TB) leukemia
T-47D breast = tested on: T-47D breast
K-562 leukemia = tested on: K-562 leukemia
SK-OV-3 ovarian = tested on: SK-OV-3 ovarian
SF-295 CNS = tested on: SF-295 CNS
MDA-MB-435 = tested on: MDA-MB-435
IGROV1 ovarian = tested on: IGROV1 ovarian
UACC-62 melanoma = tested on: UACC-62 melanoma
MDA-N = tested on: MDA-N
NCI-H460 lung = tested on: NCI-H460 lung
PC-3 prostate = tested on: PC-3 prostate
EKVX NSCLC = tested on: EKVX NSCLC
OVCAR-4 ovarian = tested on: OVCAR-4 ovarian
NCI-H23 lung = tested on: NCI-H23 lung
HCT-15 colon = tested on: HCT-15 colon
OVCAR-3 ovarian = tested on: OVCAR-3 ovarian
RPMI-8226 leukemia = tested on: RPMI-8226 leukemia
HOP-62 NSCLC = tested on: HOP-62 NSCLC
COLO 205 colon = tested on: COLO 205 colon
SK-MEL-2 melanoma = tested on: SK-MEL-2 melanoma
UO-31 renal = tested on: UO-31 renal
NCI-H226 lung = tested on: NCI-H226 lung
ACHN renal = tested on: ACHN renal
LOX IMVI melanoma = tested on: LOX IMVI melanoma
SK-MEL-28 melanoma = tested on: SK-MEL-28 melanoma
SR leukemia = tested on: SR leukemia
SNB-75 CNS = tested on: SNB-75 CNS
MDA-MB-231 breast = tested on: MDA-MB-231 breast
MOLT-4 leukemia = tested on: MOLT-4 leukemia
UACC-257 melanoma = tested on: UACC-257 melanoma
A498 renal = tested on: A498 renal
U251 CNS = tested on: U251 CNS
SK-MEL-5 melanoma = tested on: SK-MEL-5 melanoma
OVCAR-5 ovarian = tested on: OVCAR-5 ovarian
TK-10 renal = tested on: TK-10 renal
MCF7 breast = tested on: MCF7 breast
SW-620 colon = tested on: SW-620 colon
NCI/ADR-RES ovarian = tested on: NCI/ADR-RES ovarian
HCT-116 colon = tested on: HCT-116 colon
BT-549 breast = tested on: BT-549 breast
SF-539 CNS = tested on: SF-539 CNS
SN12C renal = tested on: SN12C renal
NCI-H522 lung = tested on: NCI-H522 lung
SF-268 CNS = tested on: SF-268 CNS
786-0 renal = tested on: 786-0 renal

Measured: TGI

CCOC(=O)c1csc(NC(=O)CN2CCN(c3ccccc3)CC2)n1
> 100 µM: CAKI-1 renal | OVCAR-8 ovarian | HT29 colon | DU-145 prostate | RXF 393 renal | A549 NSCLC | HCC-2998 colon | MALME-3M melanoma | SNB-19 CNS | KM12 colon | M14 melanoma | CCRF-CEM leukemia | HOP-92 NSCLC | HL-60(TB) leukemia | T-47D breast | K-562 leukemia | SK-OV-3 ovarian | SF-295 CNS | MDA-MB-435 | IGROV1 ovarian | UACC-62 melanoma | MDA-N | NCI-H460 lung | PC-3 prostate | EKVX NSCLC | OVCAR-4 ovarian | NCI-H23 lung | HCT-15 colon | OVCAR-3 ovarian | RPMI-8226 leukemia | HOP-62 NSCLC | COLO 205 colon | SK-MEL-2 melanoma | UO-31 renal | NCI-H226 lung | ACHN renal | LOX IMVI melanoma | SK-MEL-28 melanoma | SR leukemia | SNB-75 CNS | MDA-MB-231 breast | MOLT-4 leukemia | UACC-257 melanoma | A498 renal | U251 CNS | SK-MEL-5 melanoma | OVCAR-5 ovarian | TK-10 renal | MCF7 breast | SW-620 colon | NCI/ADR-RES ovarian

COc1cc2c(cc1OCCCCCN1C(=O)c3cccc4cccc(c34)C1=O)N=C[C@@H]1CCCN1C2=O
0.297 µM: UACC-62 melanoma
0.331 µM: MDA-N
0.785 µM: LOX IMVI melanoma
3.3 µM: A549 NSCLC
0.966 µM: SK-MEL-28 melanoma
4.06 µM: HCT-15 colon
4.66 µM: SF-295 CNS
0.855 µM: BT-549 breast
0.0493 µM: RXF 393 renal
0.535 µM: IGROV1 ovarian
1.5 µM: HT29 colon
2.55 µM: SF-539 CNS
1.85 µM: EKVX NSCLC
0.364 µM: MALME-3M melanoma
0.524 µM: OVCAR-3 ovarian
0.548 µM: SK-MEL-2 melanoma
2.78 µM: TK-10 renal
0.454 µM: UO-31 renal
> 26.2 µM: RPMI-8226 leukemia
0.574 µM: NCI-H226 lung
0.306 µM: MDA-MB-435
6.9 µM: DU-145 prostate
8.25 µM: T-47D breast
0.827 µM: ACHN renal
0.747 µM: HOP-92 NSCLC
0.349 µM: M14 melanoma
1.47 µM: OVCAR-8 ovarian
0.458 µM: NCI-H23 lung
0.167 µM: NCI-H522 lung
4.15 µM: SNB-19 CNS
1.84 µM: UACC-257 melanoma
1.24 µM: SNB-75 CNS
0.0677 µM: CCRF-CEM leukemia
0.391 µM: KM12 colon
3.13 µM: HCT-116 colon
15.5 µM: OVCAR-5 ovarian
9.62 µM: SN12C renal
0.89 µM: NCI/ADR-RES ovarian
> 100 µM: HCC-2998 colon | K-562 leukemia | NCI-H460 lung | OVCAR-4 ovarian | SF-268 CNS | MDA-MB-231 breast | MOLT-4 leukemia | U251 CNS
1.3 µM: A498 renal

CCCCN(CC)C(=O)C1=C(C)NC(C)=C(C(=O)N(CC)CCCC)C1
> 100 µM: CAKI-1 renal | OVCAR-8 ovarian | HT29 colon | DU-145 prostate | RXF 393 renal | A549 NSCLC | HCC-2998 colon | SNB-19 CNS | KM12 colon | HCT-116 colon | M14 melanoma | HOP-92 NSCLC | HL-60(TB) leukemia | T-47D breast | BT-549 breast | SK-OV-3 ovarian | SF-295 CNS | MDA-MB-435 | IGROV1 ovarian | UACC-62 melanoma | MDA-N | NCI-H460 lung | EKVX NSCLC | OVCAR-4 ovarian | NCI-H23 lung | SF-539 CNS | SN12C renal | HCT-15 colon | OVCAR-3 ovarian | HOP-62 NSCLC | SF-268 CNS | COLO 205 colon | SK-MEL-2 melanoma | UO-31 renal | NCI-H226 lung | ACHN renal | LOX IMVI melanoma | SK-MEL-28 melanoma | SNB-75 CNS | MDA-MB-231 breast | MOLT-4 leukemia | UACC-257 melanoma | A498 renal | 786-0 renal | U251 CNS | SK-MEL-5 melanoma | OVCAR-5 ovarian | TK-10 renal | MCF7 breast | SW-620 colon | NCI/ADR-RES ovarian
